From patent publication US12577250B2, “1,2,4-triazolone derivative as DHODH inhibitor, and preparation method therefor and use thereof” (WIGEN BIOMEDICINE TECHNOLOGY (SHANGHAI) CO., LTD., priority 2021, dated 2026)
Read-outs that look alike come from different tables or passages of the source.

Columns and labels:
MV-4-11 cells = assay: Anti-proliferative activity on MV-4-11 cells (CellTiter-Lumi, 72 h); type: cell-based; conditions: Homo sapiens, MV4-11, 72 h, read-out: Cell anti-proliferative activity IC50 MV-4-11
Description: MV-4-11 cells were seeded into a 384-well plate (Fisher 142762) at 3000 cells per well. The next day, serially diluted compounds were added, and 72 h after the addition, CellTiter-Lumi (Beyotime C0068XL) was added to measure the ATP content in the cells. The growth of the cells was evaluated, and IC50 of the compounds against cell growth was calculated.

DHODH = DHODH (Homo sapiens, UniProt Q02127); assay: Assay against enzyme activity of DHODH (DCIP absorption at 600 nm); type: biochemical
DHODH, sequence (Q02127 whole entry): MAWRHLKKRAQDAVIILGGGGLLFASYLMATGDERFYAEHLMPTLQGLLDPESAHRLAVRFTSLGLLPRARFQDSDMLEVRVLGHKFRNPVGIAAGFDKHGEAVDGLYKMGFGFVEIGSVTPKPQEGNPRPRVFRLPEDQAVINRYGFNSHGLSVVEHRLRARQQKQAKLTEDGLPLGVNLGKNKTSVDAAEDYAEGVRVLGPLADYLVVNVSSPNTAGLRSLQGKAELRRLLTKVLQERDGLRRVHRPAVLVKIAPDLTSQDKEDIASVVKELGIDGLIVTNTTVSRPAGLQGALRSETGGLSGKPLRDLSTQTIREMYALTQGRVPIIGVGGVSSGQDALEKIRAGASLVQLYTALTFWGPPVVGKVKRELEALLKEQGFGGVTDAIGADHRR
Description: The enzyme activity of DHODH was assayed through a cascade reaction to determine its ability to catalyze the oxidation of a natural substrate DHO (dihydroorotic acid) to orotic acid while reducing coenzyme Q. The enzyme activity of DHODH was indirectly detected by assaying the ability of the coenzyme Q to reduce a chromogenic substrate DCIP. After the compound and an enzyme reaction mixture were incubated for 5 min, a reaction substrate DHO was added to start the reaction, and the enzyme activity was assayed by assaying the absorption at 600 nm to detect the DCIP exhaustion in a timed manner.

SMILES | IC50 (MV-4-11 cells) [nM] | IC50 (DHODH) [nM] | IC50 (MV-4-11 cells; class symbols) [nM]
Cc1cnccc1NC(=O)c1cc(F)c(-n2nc3n(c2=O)CCC2(CC2)C3)cc1O[C@@H](C)C(F)(F)F [Compound 34] | 10.2 | < 50 | –
CC[C@H](C)Oc1cc(-n2nc3n(c2=O)CCC2(CC2)C3)c(F)cc1C(=O)Nc1c(F)cccc1Cl [Compound 41] | – | < 50 | ≤ 50
C[C@H](Oc1cc(-n2nc3n(c2=O)CC2(CC2)C3)c(F)cc1C(=O)Nc1c(F)cccc1Cl)C1CCCCC1 [Compound 49] | – | < 50 | ≤ 50
C[C@H](Oc1cc(-n2nc3n(c2=O)CCCC2(CC2)C3)c(F)cc1C(=O)Nc1c(F)cccc1Cl)C1CCCCC1 [Compound 52] | – | < 50 | ≤ 50
Cc1c(F)cccc1NC(=O)c1cc(F)c(-n2nc3n(c2=O)CCC2(CC2)C3)cc1O[C@@H](C)C(F)(F)F [Compound 23] | – | < 50 | ≤ 50
CCC[C@H](C)Oc1nc(-n2nc3n(c2=O)CCC2(CC2)C3)c(F)cc1C(=O)Nc1c(C)cnc(OC)c1Cl [Compound 59] | 2.05 | < 50 | –
CCC[C@H](C)Oc1cc(-n2nc3n(c2=O)CCCC2(CC2)C3)c(F)cc1C(=O)Nc1c(F)cccc1Cl [Compound 53] | 6.89 | < 50 | –
CC(C)Oc1cc(-n2nc3n(c2=O)CCC2(CC2)C3)c(F)cc1C(=O)Nc1c(F)cccc1Cl [Compound 40] | – | < 50 | ≤ 50
C[C@H](Oc1cc(-n2nc3n(c2=O)CCC2(CC2)C3)c(F)cc1C(=O)Nc1ccc(N)cc1C(F)(F)F)C(F)(F)F [Compound 26] | – | < 50 | ≤ 50
Cc1cccc(C(F)(F)F)c1NC(=O)c1cc(F)c(-n2nc3n(c2=O)CCC2(CC2)C3)cc1O[C@@H](C)C(F)(F)F [Compound 16] | – | < 50 | ≤ 50
C[C@H](Oc1cc(-n2nc3n(c2=O)CCC2(CC2)C3)c(F)cc1C(=O)Nc1c(F)cccc1Cl)C1CCCC1 [Compound 46] | – | < 50 | ≤ 50
CCC[C@H](C)Oc1cc(-n2nc3n(c2=O)CC2(CC2)C3)c(F)cc1C(=O)Nc1c(F)cccc1Cl [Compound 50] | – | < 50 | ≤ 50
Cc1cccc(NC(=O)c2cc(F)c(-n3nc4n(c3=O)CCC3(CC3)C4)cc2O[C@@H](C)C(F)(F)F)c1 [Compound 7] | – | < 50 | ≤ 50
C[C@H](Oc1cc(-n2nc3n(c2=O)CCC2(CC2)C3)c(F)cc1C(=O)Nc1c(F)cccc1Cl)C1CC1 [Compound 44] | – | < 50 | ≤ 50
C[C@H](Oc1cc(-n2nc3n(c2=O)CCC2(CC2)C3)c(F)cc1C(=O)Nc1c(F)cccc1Cl)C1CCCCC1 [Compound 47] | – | < 50 | ≤ 50
COc1ncc(C)c(NC(=O)c2cc(F)c(-n3nc4n(c3=O)CCC3(CC3)C4)nc2O[C@@H](C)C(F)(F)F)c1Cl [Compound 57] | 0.32 | < 50 | –
Cc1ccccc1NC(=O)c1cc(F)c(-n2nc3n(c2=O)CCC2(CC2)C3)cc1O[C@@H](C)C(F)(F)F [Compound 5] | – | < 50 | ≤ 50
C[C@H](Oc1cc(-n2nc3n(c2=O)CCC2(CC2)C3)c(F)cc1C(=O)Nc1ccccc1C(F)(F)F)C(F)(F)F [Compound 3] | 5.45 | < 50 | –

SMILES | IC50 (MV-4-11 cells) [nM] | IC50 (DHODH) [nM] | IC50 (MV-4-11 cells; class symbols) [nM]
Cc1cccnc1NC(=O)c1cc(F)c(-n2nc3n(c2=O)CCC2(CC2)C3)cc1O[C@@H](C)C(F)(F)F [Compound 33] | – | < 50 | 50 to 500
COc1ccnc(C)c1NC(=O)c1cc(F)c(-n2nc3n(c2=O)CCC2(CC2)C3)cc1O[C@@H](C)C(F)(F)F [Compound 35] | 6.79 | < 50 | –
Cc1cc(N)ccc1NC(=O)c1cc(F)c(-n2nc3n(c2=O)CCC2(CC2)C3)cc1O[C@@H](C)C(F)(F)F [Compound 25] | – | < 50 | ≤ 50
CCC[C@H](C)Oc1cc(-n2nc3n(c2=O)CCC2(CC2)C3)c(F)cc1C(=O)Nc1c(F)cccc1Cl [Compound 42] | – | < 50 | ≤ 50
COc1ncc(C)c(NC(=O)c2cc(F)c(-n3nc4n(c3=O)CCC3(CC3)C4)nc2O[C@@H](C)C2CCCCC2)c1Cl [Compound 58] | 0.75 | < 50 | –
C[C@H](Oc1cc(-n2nc3n(c2=O)CCC2(CC2)C3)c(F)cc1C(=O)Nc1c(F)cccc1C(F)(F)F)C(F)(F)F [Compound 14] | – | < 50 | ≤ 50
C[C@H](Oc1cc(-n2nc3n(c2=O)CCC2(CC2)C3)c(F)cc1C(=O)Nc1ccccc1C(F)F)C(F)(F)F [Compound 4] | – | < 50 | ≤ 50
Cc1cccc(N)c1NC(=O)c1cc(F)c(-n2nc3n(c2=O)CCC2(CC2)C3)cc1O[C@@H](C)C(F)(F)F [Compound 17] | – | – | ≤ 50
C[C@H](Oc1cc(-n2nc3n(c2=O)CCC2(CC2)C3)c(F)cc1C(=O)Nc1c(F)cccc1Cl)C1CCC1 [Compound 45] | – | < 50 | ≤ 50
C[C@H](Oc1nc(-n2nc3n(c2=O)CCC2(CC2)C3)c(F)cc1C(=O)Nc1c(F)cccc1Cl)C1CCCCC1 [Compound 55] | 1.45 | < 50 | –
CC(C)[C@H](C)Oc1cc(-n2nc3n(c2=O)CCC2(CC2)C3)c(F)cc1C(=O)Nc1c(F)cccc1Cl [Compound 43] | – | < 50 | ≤ 50
Cc1c(Cl)cccc1NC(=O)c1cc(F)c(-n2nc3n(c2=O)CCC2(CC2)C3)cc1O[C@@H](C)C(F)(F)F [Compound 24] | – | < 50 | ≤ 50
Cc1n[nH]c(C)c1NC(=O)c1cc(F)c(-n2nc3n(c2=O)CCC2(CC2)C3)cc1O[C@@H](C)C(F)(F)F [Compound 38] | 21.4 | < 50 | –
C[C@H](Oc1cc(-n2nc3n(c2=O)CCC2(CC2)C3)c(F)cc1C(=O)Nc1cccc(Cl)c1)C(F)(F)F [Compound 8] | – | < 50 | ≤ 50
COc1cccc(C)c1NC(=O)c1cc(F)c(-n2nc3n(c2=O)CCC2(CC2)C3)cc1O[C@@H](C)C(F)(F)F [Compound 15] | 3.42 | – | –
C[C@H](Oc1cc(-n2nc3n(c2=O)CCC2(CC2)C3)c(F)cc1C(=O)Nc1ccccc1F)C(F)(F)F [Compound 2] | 4.56 | – | –
COc1cccc(C)c1NC(=O)c1cc(F)c(-n2nc3n(c2=O)CCC2(CC2)C3)cc1O[C@@H](C)C(F)(F)F [Compound 18] | – | – | ≤ 50

Continued, values first:

IC50 (MV-4-11 cells) [nM] | IC50 (DHODH) [nM] | IC50 (MV-4-11 cells; class symbols) [nM] | SMILES
10.7 | < 50 | – | C[C@H](Oc1cc(-n2nc3n(c2=O)CC2(CC2)C3)c(F)cc1C(=O)Nc1c(F)cccc1Cl)C(F)(F)F [Compound 48]
– | < 50 | ≤ 50 | C[C@H](Oc1cc(-n2nc3n(c2=O)CCC2(CC2)C3)c(F)cc1C(=O)Nc1c(Cl)cc(F)cc1Cl)C(F)(F)F [Compound 28]
2.24 | – | – | C[C@H](Oc1cc(-n2nc3n(c2=O)CCC2(CC2)C3)c(F)cc1C(=O)Nc1c(F)cccc1F)C(F)(F)F [Compound 10]
1.45 | < 50 | – | Cc1cccc(Cl)c1NC(=O)c1cc(F)c(-n2nc3n(c2=O)CCC2(CC2)C3)cc1O[C@@H](C)C(F)(F)F [Compound 12]
– | < 50 | ≤ 50 | Cc1ccc(F)c(NC(=O)c2cc(F)c(-n3nc4n(c3=O)CCC3(CC3)C4)cc2O[C@@H](C)C(F)(F)F)c1 [Compound 19]
– | < 50 | ≤ 50 | COc1cc(F)c(NC(=O)c2cc(F)c(-n3nc4n(c3=O)CCC3(CC3)C4)cc2O[C@@H](C)C(F)(F)F)c(F)c1 [Compound 30]
– | < 50 | ≤ 50 | Cc1cc(F)cc(Cl)c1NC(=O)c1cc(F)c(-n2nc3n(c2=O)CCC2(CC2)C3)cc1O[C@@H](C)C(F)(F)F [Compound 29]
1.56 | < 50 | – | C[C@H](Oc1cc(-n2nc3n(c2=O)CCC2(CC2)C3)c(F)cc1C(=O)Nc1c(Cl)cccc1Cl)C(F)(F)F [Compound 13]
– | < 50 | ≤ 50 | Cc1ccc(Cl)c(NC(=O)c2cc(F)c(-n3nc4n(c3=O)CCC3(CC3)C4)cc2O[C@@H](C)C(F)(F)F)c1C [Compound 32]
– | < 50 | ≤ 50 | C[C@H](Oc1cc(-n2nc3n(c2=O)CCC2(CC2)C3)c(F)cc1C(=O)Nc1c(Cl)ccc(F)c1F)C(F)(F)F [Compound 31]
– | < 50 | ≤ 50 | Cc1cc(F)ccc1NC(=O)c1cc(F)c(-n2nc3n(c2=O)CCC2(CC2)C3)cc1O[C@@H](C)C(F)(F)F [Compound 22]
12.4 | < 50 | – | Cc1ccnc(Cl)c1NC(=O)c1cc(F)c(-n2nc3n(c2=O)CCC2(CC2)C3)cc1O[C@@H](C)C(F)(F)F [Compound 36]
10.5 | < 50 | – | COc1nccc(Cl)c1NC(=O)c1cc(F)c(-n2nc3n(c2=O)CCC2(CC2)C3)cc1O[C@@H](C)C(F)(F)F [Compound 37]
– | < 50 | ≤ 50 | C[C@H](Oc1cc(-n2nc3n(c2=O)CCC2(CC2)C3)c(F)cc1C(=O)Nc1cccc(F)c1)C(F)(F)F [Compound 9]
– | < 50 | ≤ 50 | C[C@H](Oc1cc(-n2nc3n(c2=O)CCC2(CC2)C3)c(F)cc1C(=O)Nc1c(F)cc(F)cc1Cl)C(F)(F)F [Compound 27]
– | < 50 | ≤ 50 | C[C@H](Oc1cc(-n2nc3n(c2=O)CCC2(CC2)C3)c(F)cc1C(=O)Nc1cc(Cl)ccc1F)C(F)(F)F [Compound 20]
2.13 | – | – | Cc1cccc(F)c1NC(=O)c1cc(F)c(-n2nc3n(c2=O)CCC2(CC2)C3)cc1O[C@@H](C)C(F)(F)F [Compound 11]
65.8 | < 50 | – | Cc1n[nH]c(Cl)c1NC(=O)c1cc(F)c(-n2nc3n(c2=O)CCC2(CC2)C3)cc1O[C@@H](C)C(F)(F)F [Compound 39]
